Reference: US20240132431A1, “METHOD FOR ALKYLATING ACIDIC FUNCTIONAL GROUP” (Chugai Seiyaku Kabushiki Kaisha, priority 2021, published 2024)

Biological target: T1, Bcl-2 protein (Recombinant Human Bcl-2 Protein) (Homo sapiens, UniProt P10415)
T1 construct: purchased Novus NBP2-34889
Experiment: Binding evaluation of mixture library compounds to Bcl-2 using AS-MS (affinity selection mass spectrometry)
How it was run: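 Pooled library of ~1200 compounds ([…] each, final) incubated with recombinant human Bcl-2 (20 μM final) in Tris-HCl pH 7.4, NaCl, Tween-20, DTT buffer, dark, 23° C., 1 h. Bound fraction recovered by SEC spin column, organic extraction, reversed-phase LC/MS. ASMS Ratio (%) = (A−C)/B×100 versus protein-free standard and SEC blank.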

T1 sequence (P10415 whole entry): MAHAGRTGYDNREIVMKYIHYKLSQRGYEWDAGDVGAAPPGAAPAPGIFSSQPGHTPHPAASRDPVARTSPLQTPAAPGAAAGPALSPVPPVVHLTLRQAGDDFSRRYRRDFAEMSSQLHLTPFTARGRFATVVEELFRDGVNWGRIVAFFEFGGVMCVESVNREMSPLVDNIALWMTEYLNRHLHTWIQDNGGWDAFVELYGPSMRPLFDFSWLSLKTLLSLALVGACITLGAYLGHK

Q: What does the source list for `CCOc1cccc(-c2ccc(CN3CCN(c4ccc(C(=O)NS(C)(=O)=O)nn4)CC3)c(CC)c2)c1` [B2I075-01]?
A: ASMS ratio (%) (n = 1): 0.0%; ASMS ratio (%) (n = 2): 0.0%

Q: For `CCOc1cncc(-c2ccc(CN3CCN(c4ccc(C(=O)NS(C)(=O)=O)nn4)CC3)c(CC)c2)c1` [B2I076-01, 6-[4-[[4-(5-Ethoxypyridin-3-yl)-2-ethylphenyl]methyl]piperazin-1-yl]-N-methylsulfonylpyridazine-3-carboxamide], which “ASMS ratio (%)” value (n = 1) is on record?
A: 0.2%

Q: And the “ASMS ratio (%)” value (n = 2)?
A: −3.2%

Q: Which results are given for `CCOc1cccc(-c2ccc(CN3CCN(c4ccc(C(=O)NS(C)(=O)=O)nn4)CC3)cc2F)c1` [B2I077-01, 6-[4-[[4-(3-Ethoxyphenyl)-3-fluorophenyl]methyl]piperazin-1-yl]-N-methylsulfonylpyridazine-3-carboxamide]?
A: ASMS ratio (%) (n = 1): 0.0%; ASMS ratio (%) (n = 2): 0.0%

Q: What does the source list for `CCOc1cncc(-c2ccc(CN3CCN(c4ccc(C(=O)NS(C)(=O)=O)nn4)CC3)cc2F)c1` [B2I078-01]?
A: ASMS ratio (%) (n = 1): 0.0%; ASMS ratio (%) (n = 2): 0.0%

Q: Which “ASMS ratio (%)” value (n = 1) does the source give for `CCOc1cccc(-c2ccc(CN3CCN(c4ccc(C(=O)NS(C)(=O)=O)nn4)CC3)c(OC)c2)c1` [B2I079-01, 6-[4-[[4-(3-Ethoxyphenyl)-2-methoxyphenyl]methyl]piperazin-1-yl]-N-methylsulfonylpyridazine-3-carboxamide] here?
A: 0.0%

Q: And the “ASMS ratio (%)” value (n = 2)?
A: 0.0%

Q: Which “ASMS ratio (%)” value (n = 1) does the source give for `CCOc1cncc(-c2ccc(CN3CCN(c4ccc(C(=O)NS(C)(=O)=O)nn4)CC3)c(OC)c2)c1` [B2I080-01, 6-[4-[[4-(5-Ethoxypyridin-3-yl)-2-methoxyphenyl]methyl]piperazin-1-yl]-N-methylsulfonylpyridazine-3-carboxamide] here?
A: 0.0%

Q: What does the source list for `CCOc1cccc(-c2cc(CN3CCN(c4ccc(C(=O)NS(C)(=O)=O)nn4)CC3)cc(OCC)c2)c1` [B2I081-01]?
A: ASMS ratio (%) (n = 1): 0.0%; ASMS ratio (%) (n = 2): 0.0%

Q: Which “ASMS ratio (%)” value (n = 1) does the source give for `CCOc1cncc(-c2cc(CN3CCN(c4ccc(C(=O)NS(C)(=O)=O)nn4)CC3)cc(OCC)c2)c1` [B2I082-01, 6-[4-[[3-Ethoxy-5-(5-ethoxypyridin-3-yl)phenyl]methyl]piperazin-1-yl]-N-methylsulfonylpyridazine-3-carboxamide] here?
A: 0.0%

Q: And the “ASMS ratio (%)” value (n = 2)?
A: 1.9%

Q: For `CCOc1cccc(-c2cc(CN3CCN(c4ccc(C(=O)NS(C)(=O)=O)nn4)CC3)cc(OC(C)C)c2)c1` [B2I083-01, 6-[4-[[3-(3-Ethoxyphenyl)-5-propan-2-yloxyphenyl]methyl]piperazin-1-yl]-N-methylsulfonylpyridazine-3-carboxamide], which “ASMS ratio (%)” value (n = 1) is on record?
A: 0.0%

Q: What about the “ASMS ratio (%)” value (n = 2) of the same compound?
A: 0.0%

Q: Which “ASMS ratio (%)” value (n = 1) does the source give for `CCOc1cncc(-c2cc(CN3CCN(c4ccc(C(=O)NS(C)(=O)=O)nn4)CC3)cc(OC(C)C)c2)c1` [B2I084-01] here?
A: −0.9%

Q: What about the “ASMS ratio (%)” value (n = 2) of the same compound?
A: −1.5%

Q: What does the source list for `CCOc1cccc(-c2cc(OC)c(CN3CCN(c4ccc(C(=O)NS(C)(=O)=O)nn4)CC3)c(OC)c2)c1` [B2I085-01, 6-[4-[[4-(3-Ethoxyphenyl)-2,6-dimethoxyphenyl]methyl]piperazin-1-yl]-N-methylsulfonylpyridazine-3-carboxamide]?
A: ASMS ratio (%) (n = 1): 0.0%; ASMS ratio (%) (n = 2): 0.0%

Q: Which results are given for `CCOc1cncc(-c2cc(OC)c(CN3CCN(c4ccc(C(=O)NS(C)(=O)=O)nn4)CC3)c(OC)c2)c1` [B2I086-01, 6-[4-[[4-(5-Ethoxypyridin-3-yl)-2,6-dimethoxyphenyl]methyl]piperazin-1-yl]-N-methylsulfonylpyridazine-3-carboxamide]?
A: ASMS ratio (%) (n = 1): 0.0%; ASMS ratio (%) (n = 2): 0.0%

Q: How did the “ASMS ratio (%)” value (n = 1) turn out when `CCOc1cccc(-c2cc(CN3CCN(c4ccc(C(=O)NS(C)(=O)=O)nn4)CC3)cc(C(F)(F)F)c2)c1` [B2I087-01, 6-[4-[[3-(3-Ethoxyphenyl)-5-(trifluoromethyl)phenyl]methyl]piperazin-1-yl]-N-methylsulfonylpyridazine-3-carboxamide] was run?
A: 1.3%

Q: And the “ASMS ratio (%)” value (n = 2)?
A: −0.9%

Q: Which results are given for `CCOc1cncc(-c2cc(CN3CCN(c4ccc(C(=O)NS(C)(=O)=O)nn4)CC3)cc(C(F)(F)F)c2)c1` [B2I088-01, 6-[4-[[3-(5-Ethoxypyridin-3-yl)-5-(trifluoromethyl)phenyl]methyl]piperazin-1-yl]-N-methylsulfonylpyridazine-3-carboxamide]?
A: ASMS ratio (%) (n = 1): 0.0%; ASMS ratio (%) (n = 2): 0.0%

Q: How did the “ASMS ratio (%)” value (n = 1) turn out when `CCOc1cccc(-c2cc(CN3CCN(c4ccc(C(=O)NS(C)(=O)=O)nn4)CC3)cc(OC(F)(F)F)c2)c1` [B2I089-01, 6-[4-[[3-(3-Ethoxyphenyl)-5-(trifluoromethoxy)phenyl]methyl]piperazin-1-yl]-N-methylsulfonylpyridazine-3-carboxamide] was run?
A: 1.4%

Q: And the “ASMS ratio (%)” value (n = 2)?
A: 0.0%

Q: `CCOc1cncc(-c2cc(CN3CCN(c4ccc(C(=O)NS(C)(=O)=O)nn4)CC3)cc(OC(F)(F)F)c2)c1` [B2I090-01, 6-[4-[[3-(5-Ethoxypyridin-3-yl)-5-(trifluoromethoxy)phenyl]methyl]piperazin-1-yl]-N-methylsulfonylpyridazine-3-carboxamide] was tested. Which “ASMS ratio (%)” value (n = 1) did it give?
A: 0.0%

Q: And the “ASMS ratio (%)” value (n = 2)?
A: 0.0%

Q: Which “ASMS ratio (%)” value (n = 1) does the source give for `CCOc1cncc(-c2ccc(CN3CCN(c4ccc(C(=O)NS(C)(=O)=O)nn4)CC3)c3ccccc23)c1` [B2I092-01, 6-[4-[[4-(5-Ethoxypyridin-3-yl)naphthalen-1-yl]methyl]piperazin-1-yl]-N-methylsulfonylpyridazine-3-carboxamide] here?
A: 2.6%

Q: And the “ASMS ratio (%)” value (n = 2)?
A: 0.3%

Q: With `CCOc1cncc(-c2csc(CN3CCN(c4ccc(C(=O)NS(C)(=O)=O)nn4)CC3)c2)c1` [B2I094-01, 6-[4-[[4-(5-Ethoxypyridin-3-yl)thiophen-2-yl]methyl]piperazin-1-yl]-N-methylsulfonylpyridazine-3-carboxamide] as the compound, how does the “ASMS ratio (%)” value (n = 1) read?
A: 0.0%

Q: What about the “ASMS ratio (%)” value (n = 2) of the same compound?
A: 0.0%

Q: With `CCOc1cccc(C#Cc2ccccc2CN2CCN(c3ccc(C(=O)NS(C)(=O)=O)nn3)CC2)c1` [B2I095-01, 6-[4-[[2-[2-(3-Ethoxyphenyl)ethynyl]phenyl]methyl]piperazin-1-yl]-N-methylsulfonylpyridazine-3-carboxamide] as the compound, how does the “ASMS ratio (%)” value (n = 1) read?
A: 0.0%

Q: And the “ASMS ratio (%)” value (n = 2)?
A: 0.0%

Q: `CCOc1cncc(C#Cc2ccccc2CN2CCN(c3ccc(C(=O)NS(C)(=O)=O)nn3)CC2)c1` [B2I096-01, 6-[4-[[2-[2-(5-Ethoxypyridin-3-yl)ethynyl]phenyl]methyl]piperazin-1-yl]-N-methylsulfonylpyridazine-3-carboxamide] was tested. Which “ASMS ratio (%)” value (n = 1) did it give?
A: 0.0%

Q: What about the “ASMS ratio (%)” value (n = 2) of the same compound?
A: 0.0%

Q: What does the source list for `CCOc1cccc(-c2ccc(C(C)N3CCN(c4ccc(C(=O)NS(C)(=O)=O)cc4)CC3)cc2)c1` (stereo not shown) [B2I097-01, 4-[4-[1-[4-(3-Ethoxyphenyl)phenyl]ethyl]piperazin-1-yl]-N-methylsulfonylbenzamide]?
A: ASMS ratio (%) (n = 1): 0.8%; ASMS ratio (%) (n = 2): 1.4%

Q: What does the source list for `CCOc1cncc(-c2ccc(C(C)N3CCN(c4ccc(C(=O)NS(C)(=O)=O)cc4)CC3)cc2)c1` (stereo not shown) [B2I098-01, 4-[4-[1-[4-(5-Ethoxypyridin-3-yl)phenyl]ethyl]piperazin-1-yl]-N-methylsulfonylbenzamide]?
A: ASMS ratio (%) (n = 1): 0.0%; ASMS ratio (%) (n = 2): 0.0%

Q: `CCOc1cccc(-c2ccc(C(C)N3CCN(c4ccc(C(=O)NS(C)(=O)=O)cc4)CC3)c(F)c2)c1` (stereo not shown) [B2I099-01, 4-[4-[1-[4-(3-Ethoxyphenyl)-2-fluorophenyl]ethyl]piperazin-1-yl]-N-methylsulfonylbenzamide] was tested. Which “ASMS ratio (%)” value (n = 2) did it give?
A: 0.0%

Q: How did the “ASMS ratio (%)” value (n = 1) turn out when `CCOc1cncc(-c2ccc(C(C)N3CCN(c4ccc(C(=O)NS(C)(=O)=O)cc4)CC3)c(F)c2)c1` (stereo not shown) [B2I100-01, 4-[4-[1-[4-(5-Ethoxypyridin-3-yl)-2-fluorophenyl]ethyl]piperazin-1-yl]-N-methylsulfonylbenzamide] was run?
A: 0.0%

Q: What about the “ASMS ratio (%)” value (n = 2) of the same compound?
A: 0.0%

Q: For `CCOc1cccc(-c2csc(C(=O)N3CCN(c4ccc(C(=O)NS(=O)(=O)C(C)(C)C)nn4)CC3)c2)c1` [B2L001-01, N-tert-Butylsulfonyl-6-[4-[4-(3-ethoxyphenyl)thiophene-2-carbonyl]piperazin-1-yl]pyridazine-3-carboxamide], which “ASMS ratio (%)” value (n = 1) is on record?
A: −67.5%

Q: What about the “ASMS ratio (%)” value (n = 2) of the same compound?
A: 0.0%

Q: `CCOc1cncc(-c2csc(C(=O)N3CCN(c4ccc(C(=O)NS(=O)(=O)C(C)(C)C)nn4)CC3)c2)c1` [B2L002-01, N-tert-Butylsulfonyl-6-[4-[4-(5-ethoxypyridin-3-yl)thiophene-2-carbonyl]piperazin-1-yl]pyridazine-3-carboxamide] was tested. Which “ASMS ratio (%)” value (n = 1) did it give?
A: 0.0%

Q: And the “ASMS ratio (%)” value (n = 2)?
A: 0.0%

Q: For `CCOc1cccc(-c2ccc(C(=O)N3CCN(c4ccc(C(=O)NS(=O)(=O)C(C)(C)C)nn4)CC3)cc2C)c1` [B2L003-01, N-tert-Butylsulfonyl-6-[4-[4-(3-ethoxyphenyl)-3-methylbenzoyl]piperazin-1-yl]pyridazine-3-carboxamide], which “ASMS ratio (%)” value (n = 1) is on record?
A: 0.0%

Q: And the “ASMS ratio (%)” value (n = 2)?
A: 0.0%

Q: `CCOc1cncc(-c2ccc(C(=O)N3CCN(c4ccc(C(=O)NS(=O)(=O)C(C)(C)C)nn4)CC3)cc2C)c1` [B2L004-01, N-tert-Butylsulfonyl-6-[4-[4-(5-ethoxypyridin-3-yl)-3-methylbenzoyl]piperazin-1-yl]pyridazine-3-carboxamide] was tested. Which “ASMS ratio (%)” value (n = 1) did it give?
A: 5.5%

Q: What about the “ASMS ratio (%)” value (n = 2) of the same compound?
A: 9.3%

Q: `CCOc1cccc(-c2ccc(C(=O)N3CCN(c4ccc(C(=O)NS(=O)(=O)C(C)(C)C)nn4)CC3)cc2F)c1` [B2L005-01, N-tert-Butylsulfonyl-6-[4-[4-(3-ethoxyphenyl)-3-fluorobenzoyl]piperazin-1-yl]pyridazine-3-carboxamide] was tested. Which “ASMS ratio (%)” value (n = 1) did it give?
A: 0.0%

Q: And the “ASMS ratio (%)” value (n = 2)?
A: 0.0%

Q: Which “ASMS ratio (%)” value (n = 1) does the source give for `CCOc1cncc(-c2ccc(C(=O)N3CCN(c4ccc(C(=O)NS(=O)(=O)C(C)(C)C)nn4)CC3)cc2F)c1` [B2L006-01, N-tert-Butylsulfonyl-6-[4-[4-(5-ethoxypyridin-3-yl)-3-fluorobenzoyl]piperazin-1-yl]pyridazine-3-carboxamide] here?
A: 0.0%

Q: What about the “ASMS ratio (%)” value (n = 2) of the same compound?
A: 0.0%
